Like-named read-outs stand apart in the source and are kept apart here.
Legend:
[1] = system: primary human T cells; test: T cell activation assay, IL-2 secretion (ELISA); assay type: cell-based
Procedure, shortened: (§1)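 Primary human T cells stimulated via TCR with anti-CD3/anti-CD28 in the presence of test compound. IL-2 secretion measured by ELISA; surface CD25 and CD69 by flow cytometry. Values are fold-change versus anti-CD3/anti-CD28 stimulation without compound.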

[2] = system: TMD8 C481S cells; test: Cell viability assay (CellTiter-Glo), TMD8 C481S cells; details: for EC50: Homo sapiens, TMD8, 72 h; for EMAX (% viable cells): TMD8 C481S cells, treatment time 72 h
Experimental: Cell viability was determined using CellTiter-Glo 2.0 Luminescent Cell Viability Assay (Promega, G9242), which quantitates the amount of ATP present as a proxy for the number of viable cells in culture. Cells were plated with densities between 2000-4000 cells per well in 96-well plates. […] CellTiter-Glo reagent was added to cells at a dilution of 1:20, and the plate was incubated ten minutes at room temperature prior to reading the luminescence signal using an EnVision plate reader. Controls included cells treated with DMSO and wells that contained no cells, only media. Background luminescence signal was determined by control wells containing no cells, only media, and was then subtracted from all sample wells. Luminescence values were then normalized to DMSO-treated wells and reported at proportion viable cells.

[3] = system: TMD8 tumor cells; test: TMD8 xenograft efficacy study (wild-type BTK); assay type: in vivo, mouse; details: TMD8 WT, PO, 30 mg/kg, QD, 21 days of dosing
Experimental: […] Tumor growth inhibition (% TGI) were calculated on the final day of measurement using the equation [1−(T−T0/C−T0)]×100, where T and C represent the mean size of tumors in the treated (T) and control (C) groups, and T0 refers to the tumor size at randomization.
(§2) This example examines the activity of various BTK CTMs in relevant disease models, including the WT and C481S TMD8 model, which models B cell malignancies with/without inhibitor-driven BTK mutations at C481.

[4] = biological target: BTK (Homo sapiens, UniProt Q06187); test: BTK remaining in TMD8 WT mouse xenograft study; assay type: in vivo; design: from tissue; host or cells: TMD8 xenograft in CB.17 SCID mice; details: PO, 30 mg/kg, QD, 21 days of dosing
Source text: Efficacy in Mouse Xenograft Models
as §2

[5] = biological target: T1, BTK (Mus musculus, UniProt P35991); test: In vivo degradation of BTK in mouse PD experiments with oral dosing; details: oral dose 3 mg/kg, blood, flow cytometry
T1 construct: from tissue; host or cells: mouse blood B cells / splenocytes (CD-1 or BALB/c)
Procedure, shortened: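 BTK in blood or splenocytes read by flow cytometry (or HTRF), degradation taken as B-cell minus T-cell BTK MFI versus vehicle. Mice (CD-1 or BALB/c) received compound orally, initially 90 mg/kg for 6 h, then lower doses and longer time points.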

[6] = biological target: BTK C481S (Homo sapiens, UniProt Q06187, C481S); test: BTK degradation (Total BTK HTRF) in TMD8 cells expressing BTK-C481S; assay type: cell-based; design: endogenous in cells; host or cells: TMD8 BTK-C481S (clone2C3), Cas9 RNP knock-in; details: TMD8 BTK-C481S (clone2C3) cells, treatment time 4 h
Experimental: BTK levels were determined using Cisbio Total-BTK HTRF (Homologous Time-Resolved Fluorescence) kit (63ADK064PEG) according to the manufacturer's protocol. Briefly, cells were incubated in 1× supplied lysis buffer for 30 minutes. In an opaque white low volume 96-well plate (Cisbio, 66PL96005), cell lysate was combined with two different specific BTK antibodies, one conjugated with Eu^3+-Cryptate FRET donor and one conjugated with d2 FRET acceptor. Assay controls include wells containing cell lysate with only the Eu^3+-Cryptate FRET donor antibody and wells containing both HTRF antibodies and lysis buffer without cells or control lysate provided by Cisbio. HTRF ratio was calculated as (acceptor signal at 665 nm/donor signal at 620 nm)×10^4. Background HTRF levels were determined from the control well containing the donor, but no acceptor, antibody. Background HTRF levels were subtracted from all samples. Readouts were reported as HTRF levels relative to HTRF levels of DMSO-treated cells. Four-parameter non-linear regressions were performed in GraphPad Prism 7.02 to obtain DC50 values.
BTK Degradation (Total BTK HTRF) at Four Hours in TMD8 Cells Expressing BTK-C481S
This example evaluates the potency of CTM in degrading […]. The BTK binding moieties utilized in CTMs bind to the BTK active site. This example evaluates whether the active site mutation C481S affects CTM-induced degradation of BTK.

[7] = system: B cell receptor (BCR) signaling; test: B cell activation assay (flow cytometry), mouse B cells; assay type: cell-based; details: treatment 4 h, IgM stimulation 18 h
Experimental: Compound was present throughout the stimulation. Cells were stained with Live/Dead dye (Fisher L34976) and then fluorophore-conjugated antibodies against CD20 (Biolegend 302330), CD3 (BD Pharmingen 557705), CD86 (Biolegend 305416) and CD69 (Biolegend 310906). Stained cells were fixed in PFA and run on an Attune N×T Acoustic Focusing Flow Cytometer (Thermo-Fisher A29004), and data was analyzed using FlowJo (v10.5.3) and GraphPad Prism (v7.00) software. Single live lymphocytes were gated for B cells (CD20+CD3−) and T cells (CD3+CD20−), and the geometric mean fluorescence intensity (MFI) of CD86 and CD69 was calculated for each population. The MFI of the unstimulated sample was used to quantify baseline activation.
This example evaluates whether CTM treatment affects B cell receptor (BCR) signaling. BTK is activated downstream of the B cell receptor and leads to upregulation of activation markers CD86 and CD69 on the surface of B cells.

[8] = system: TMD8 cells; test: Cell viability assay (CellTiter-Glo), TMD8 cells; details: for EC50: Homo sapiens, TMD8, 72 h; for EMAX (% viable cells): TMD8 cells, treatment time 72 h
[9] = system: primary human T cells; test: T cell activation assay, CD25 and CD69 staining (flow cytometry); assay type: cell-based; details: fold-change of response relative to baseline
Procedure, shortened: as §1

[10] = PK data for BTK CTMs (in vivo plasma concentrations); details: for Vd: read-out: Volume of Distribution
Source text: The present example evaluates in vivo plasma concentrations of BTK CTMs to develop PK-PD-efficacy relationship and predict human exposure.

[11] = 1.4 nM, fold-change of response relative to baseline
[12] = 37 nM, fold-change of response relative to baseline
[13] = 333 nM, fold-change of response relative to baseline (stimulation without compound)
[14] = Rat Sprague-Dawley, 10 mg/kg PO

Compound	IL-2 Secretion Anti-CD3/Anti-CD28 Stimulation [1, 11]	IL-2 Secretion Anti-CD3/Anti-CD28 Stimulation [1, 12]	IL-2 Secretion Anti-CD3/Anti-CD28 Stimulation [1, 13]	EC50 [2] [nM]	EMAX (% viable cells) [2] [%]	Tumor Growth Inhibition (relative to vehicle) [3] [%]	BTK Remaining (% relative to vehicle) [4] [%]	% BTK Remaining ([5]; 6 h) [%]	% BTK Remaining ([5]; 24 h) [%]	DC50 [6] [nM]	EC50 [8] [nM]	EMAX (% viable cells) [8] [%]	CD25 Staining Anti-CD3/Anti-CD28 Stimulation ([9]; 1.4 nM)	CD69 Staining Anti-CD3/Anti-CD28 Stimulation ([9]; 1.4 nM)	CD25 Staining Anti-CD3/Anti-CD28 Stimulation ([9]; 37 nM)	CD69 Staining Anti-CD3/Anti-CD28 Stimulation ([9]; 37 nM)	CD25 Staining Anti-CD3/Anti-CD28 Stimulation ([9]; 333 nM)	CD69 Staining Anti-CD3/Anti-CD28 Stimulation ([9]; 333 nM)	AUC ([10]; Mouse Balb/c, 1 mg/kg IV) [µM·h]	clearance ([10]; Mouse Balb/c, 1 mg/kg IV) [mL/min/kg]	further results
CN1CCN([C@@H]2CCCN(c3cnc(C(N)=O)c(Nc4ccc(C5CN(C6CCN(c7ccc8c(c7)C(=O)N(C7CCC(=O)NC7=O)C8=O)CC6)C5)cc4)n3)C2)C1=O (stereo partly shown) [Compound 37]	1.16	2.06	1.64	51.7	16	41	16	26	51	2.7	21.1	10	1.11	1.08	0.79	0.77	0.43	0.45	1.77	12	EC50 ([7]; read-out: CD69 EC50): 0.1 nM; EC50 ([7]; read-out: CD86 EC50): 0.2 nM; Vd ([10]; Mouse Balb/c, 1 mg/kg IV): 1.2 L/kg; AUC ([10]; Mouse Balb/c, 30 mg/kg PO): 1.79 µM·h; bioavailability ([10]; Mouse Balb/c, 30 mg/kg PO): 5%; AUC ([10]; Rat Sprague-Dawley, 1 mg/kg IV): 0.59 µM·h; clearance ([10]; Rat Sprague-Dawley, 1 mg/kg IV): 36.3 mL/min/kg; Vd ([10]; Rat Sprague-Dawley, 1 mg/kg IV): 4.6 L/kg; AUC [10, 14]: 0.027 µM·h; bioavailability [10, 14]: 1%
CN1CCN([C@@H]2CCCN(c3cnc(C(N)=O)c(Nc4ccc(C5CCN(C6CN(c7ccc8c(c7)C(=O)N(C7CCC(=O)NC7=O)C8=O)C6)CC5)cc4)n3)C2)C1=O (stereo partly shown) [Compound 53]	1.22	2.08	2.53	16.1	24	27	19	35	56	8	2.24	16	1.09	1.06	1.14	1.07	0.84	0.83	2.75	7.5	Vd ([10]; Mouse Balb/c, 1 mg/kg IV): 0.88 L/kg; AUC ([10]; Mouse Balb/c, 30 mg/kg PO): 96 µM·h; bioavailability ([10]; Mouse Balb/c, 30 mg/kg PO): 113%; AUC ([10]; Rat Sprague-Dawley, 1 mg/kg IV): 0.31 µM·h; clearance ([10]; Rat Sprague-Dawley, 1 mg/kg IV): 75 mL/min/kg; Vd ([10]; Rat Sprague-Dawley, 1 mg/kg IV): 5.9 L/kg; AUC [10, 14]: 2.3 µM·h; bioavailability [10, 14]: 97%
